Test results from PubChem BioAssay (NCI).
Where “and” joins values, the source holds several entries; their conditions need not be identical. Equal entries are not always repeated.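 Exposure lasted 48 hours, with cells grown in 96-well plates and compounds tested at five concentrations. GI50 is the concentration that inhibits growth by half. TGI marks complete inhibition of growth.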 Where a SMILES comes first, the peptide text is derived from it. [ ]: non-standard residue; d: D form. The star is where a group is joined. ξ: configuration not given here. ξF = NC(Cc1ccccc1)C(=O)O; Cbz = O=C(OCc1ccccc1)*

How the values were obtained:
Test in all cases: growth of human tumour cells (NCI), 48 h
NCI-H226 lung = test system: NCI-H226 lung
TK-10 renal = test system: TK-10 renal
SR leukemia = test system: SR leukemia
NCI-H460 lung = test system: NCI-H460 lung
IGROV1 ovarian = test system: IGROV1 ovarian
HOP-62 NSCLC = test system: HOP-62 NSCLC
SN12C renal = test system: SN12C renal
LOX IMVI melanoma = test system: LOX IMVI melanoma
KM12 colon = test system: KM12 colon

Row | Compound | TGI (NCI-H226 lung) | TGI (TK-10 renal) | TGI (SR leukemia) | TGI (NCI-H460 lung) | TGI (IGROV1 ovarian) | TGI (HOP-62 NSCLC) | TGI (SN12C renal) | TGI (LOX IMVI melanoma) | TGI (KM12 colon) | GI50 (TK-10 renal) | GI50 (KM12 colon)
1 | COC1(OC)c2occc2C(=N)c2ccc(=O)oc21 | > 100 µM | > 100 µM | > 100 µM | > 100 µM | > 100 µM | > 100 µM | > 100 µM | > 100 µM | – | – | –
2 | Clc1ccc(C=Nc2ccc(Oc3ccc(Cl)cc3)c(Cl)c2)cc1 | > 100 µM | > 100 µM | – | 44.5 µM | > 100 µM | 37.5 µM | 36.6 µM | 39.1 µM | 52.5 µM | – | –
3 | Cc1[nH]n(-c2nc3c(c(=O)[nH]2)CCCC3)c(=O)c1CCO | > 100 µM | > 100 µM | – | > 100 µM | > 100 µM | > 100 µM | > 100 µM | > 100 µM | > 100 µM | – | –
4 | O=c1[nH]c(N/N=C\C(O)C(O)C(O)C(O)CO)nc2ccccc12 (configuration not stated) | > 100 µM | > 100 µM | > 100 µM | > 100 µM | > 100 µM | > 100 µM | > 100 µM | > 100 µM | > 100 µM | – | –
5 | CCOc1cnc(C(O)(c2ccccc2)c2ccccc2)o1 | > 100 µM | – | > 100 µM | > 100 µM | > 100 µM | > 100 µM | > 100 µM | > 100 µM | > 100 µM | – | –
6 | C=CCC(CCC(C)=O)(C(=O)OCC)C(=O)OCC | > 100 µM | > 100 µM | > 100 µM | > 100 µM | > 100 µM | > 100 µM | > 100 µM | – | > 100 µM | – | –
7 | CCOC(=O)C1(C/C=C\CBr)CCCC1=O (configuration not stated) | 88.6 µM | 39 µM | – | – | > 100 µM | 56.7 µM | 40.1 µM | 31.2 µM | > 100 µM | – | –
8 | NS(=O)(=O)c1nnc(NC(=S)NC(=O)Nc2ccc(Cl)c(Cl)c2)s1 | > 100 µM | > 100 µM | – | – | 46.7 µM | 63.7 µM | 68.2 µM | 34 µM | 39.9 µM | – | –
9 | N#Cc1sc2nc3ccccc3n2c1N | > 100 µM | > 100 µM | – | – | > 100 µM | > 100 µM | – | > 100 µM | 23.6 µM | – | –
10 | Cc1ccc(N=N/C(=N/NC(=O)c2ccccc2)c2ccc(N(CCC#N)CCC#N)cc2C)cc1 | > 100 µM | > 100 µM | > 100 µM | > 100 µM | > 100 µM | > 100 µM | > 100 µM | – | > 100 µM | – | –
11 | Cc1cc2nc3c(C#N)c(-c4ccccc4)/c(=C\Nc4ccc(F)cc4)c(=O)n3c2cc1C | > 100 µM | > 100 µM | – | > 100 µM | > 100 µM | > 100 µM | > 100 µM | > 100 µM | > 100 µM | – | –
12 | CCOC(=O)CNC(=O)C(Cc1ccccc1)NC(=O)OCc1ccccc1 (configuration not stated) (Cbz-[ξF]-Gly-OEt) | > 100 µM | – | > 100 µM | > 100 µM | > 100 µM | > 100 µM | > 100 µM | > 100 µM | > 100 µM | – | –
13 | CC1=NN(c2nc(N)nc(C(C)Cl)n2)C(C)(C)C1 (configuration not stated) | > 100 µM | > 100 µM | > 100 µM | > 100 µM | > 100 µM | > 100 µM | – | > 100 µM | > 100 µM | – | –
14 | Cc1ccc(OCC2OC(n3cnc4c(Cl)nc(Nc5cc(Cl)cc(Cl)c5)nc43)CC2Oc2ccc(C)cc2)cc1 (configuration not stated) | > 100 µM | – | > 100 µM | > 100 µM | > 100 µM | – | > 100 µM | > 100 µM | > 100 µM | – | –
15 | Cn1c(CNc2ccc(-c3n[nH]c(=S)n3C)cc2)n[nH]c1=S | > 100 µM | > 100 µM | – | > 100 µM | > 100 µM | > 100 µM | > 100 µM | > 100 µM | > 100 µM | – | –
16 | c1cc(-c2ccc(-c3ccsc3)s2)cs1 | 98.7 µM | > 100 µM | > 100 µM | > 100 µM | > 100 µM | > 100 µM | > 100 µM | > 100 µM | – | – | –
17 | CCOC(=O)c1cn(CC)c(=O)n2c1nc1ccccc12 | > 100 µM | – | > 100 µM | > 100 µM | > 100 µM | > 100 µM | > 100 µM | 84.1 µM | > 100 µM | – | –
18 | O=C(O)CCCc1ccc2c(c1)CC1(C2)Cc2cc3c(cc2C1)CCCC3 | 61.8 µM | > 100 µM | 40.7 µM | – | 41.4 µM | 3.54 µM | 44.1 µM | 32.7 µM | 33.6 µM | – | –
19 | COc1ccc(/C(Nc2ccccc2)=C(\CCl)c2ccccc2)cc1OC | > 100 µM | > 100 µM | – | > 100 µM | > 100 µM | > 100 µM | > 100 µM | > 100 µM | > 100 µM | – | –
20 | Cc1cc(O)c(/C=N/C(N)=S)c(=O)o1 | > 100 µM | 90.5 µM | – | > 100 µM | > 100 µM | > 100 µM | > 100 µM | – | > 100 µM | – | –
21 | COC(=O)c1cc(S(=O)(=O)NC2=NCC(C)NN2)c(S)cc1Cl (configuration not stated) | – | > 100 µM | > 100 µM | > 100 µM | > 100 µM | > 100 µM | > 100 µM | > 100 µM | > 100 µM | – | –
22 | C=CCON(C(=O)OC(C)(C)C)C(C)(C)C | > 100 µM | > 100 µM | > 100 µM | > 100 µM | > 100 µM | > 100 µM | – | > 100 µM | > 100 µM | – | –
23 | C[C@H]1CC[C@@]2(OC1)O[C@H]1C[C@H]3[C@@H]4CC[C@@H]5C[C@@H](OC6OC(CO)C(O)C(O)C6OC6OC(CO)C(O)C(O)C6O)CC[C@]5(C)[C@H]4CC[C@]3(C)[C@H]1[C@@H]2C (some centres not stated) | 4.2 µM | 3.61 µM | 4.3 µM | – | 4.14 µM | 3.99 µM | 3.77 µM | 3.75 µM | 4.62 µM | – | –
24 | O=C1CC(c2cccc(Cl)c2)Nc2ccc(N3CCCC3)cc21 (configuration not stated) | 0.606 µM and 0.338 µM | > 100 µM | – | – | – | > 100 µM | 0.0151 µM | > 100 µM | 0.117 µM | > 100 µM | 15.3 nM
25 | O=C(c1ccc(Cl)cc1)N(C(=O)N1CCCCC1)c1ccccc1 | > 100 µM | – | – | – | > 100 µM | – | > 100 µM | > 100 µM | > 100 µM | – | –
